According to PMC10698726 (Molecular Pharmaceutics, 2023):
“And” between values parts separate entries of the source, which are not always exact repeats. Equal entries are not always repeated. Where two headings read alike, the source gives them in different places.

Key:
[1] = target: T1, OCT2 (Homo sapiens, UniProt O15244); assay: Inhibition of model substrate uptake in OCT2-overexpressing HEK293 cells; conditions: for IC50: IC50, OCT2, Table S5, 2 μM ASP+ as model substrate, 5 min; for selectivity ratio at 5 min: OCT2-overexpressing HEK293 cells
T1 sequence (O15244 1-555): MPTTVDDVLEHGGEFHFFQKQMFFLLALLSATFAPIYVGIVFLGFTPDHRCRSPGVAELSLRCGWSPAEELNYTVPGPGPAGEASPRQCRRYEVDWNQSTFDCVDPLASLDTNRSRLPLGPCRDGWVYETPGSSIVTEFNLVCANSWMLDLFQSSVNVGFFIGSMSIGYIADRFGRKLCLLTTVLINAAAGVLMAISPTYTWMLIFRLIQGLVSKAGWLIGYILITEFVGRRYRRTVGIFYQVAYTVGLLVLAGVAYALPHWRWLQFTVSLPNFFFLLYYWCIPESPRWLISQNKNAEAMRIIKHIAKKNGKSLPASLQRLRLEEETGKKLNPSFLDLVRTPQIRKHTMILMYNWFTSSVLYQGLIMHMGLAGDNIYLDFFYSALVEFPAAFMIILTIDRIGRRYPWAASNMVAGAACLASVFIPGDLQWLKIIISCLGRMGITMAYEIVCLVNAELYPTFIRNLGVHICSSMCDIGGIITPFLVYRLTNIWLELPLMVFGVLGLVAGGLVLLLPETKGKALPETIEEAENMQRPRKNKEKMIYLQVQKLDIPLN
Procedure: (§1) All experiments were carried out in transporter-overexpressing HEK293 cells. OCT1-, OCT2-, NET-, DAT-, and SERT-overexpressing cells as well as the empty-vector transfected control cell line were generated as described earlier,[26]−[28] whereas the OCT3-overexpressing HEK293 cells were generous gift of from Drs. Koepsell and Gorbulev (University of Würzburg, Germany). All cells were cultivated in Dulbecco’s modified Eagle’s medium (DMEM) supplemented with 10% (v/v) FCS, penicillin (100 U/mL), and streptomycin (100 μg/mL) and kept in culture for no longer than 30 passages.
(§2) As for the transport experiments, 300,000 HEK293 cells were plated in poly-D-lysine-coated 24-well plates 2 days ahead of the experiment. On every plate, two wells of empty vector (EV)-transfected cells were used as a control to account for the passive influx of the model substrate, and two wells of transporter-overexpressing cells were used to determine the noninhibited uptake of the model substrate. Cells were initially washed once with 37 °C HBSS+ and then incubated with 2 μM model substrate (0.2 μM for MPP^+ uptake by MATs) with and without 20 μM inhibitor for 5 min. For concentration-dependent inhibition experiments, the cells were incubated with increasing inhibitor concentrations. The incubation was terminated by aspiration of the buffer before cells were washed twice with ice-cold HBSS+ and lysed in 80% acetonitrile. Cell lysates were transferred into a black 96-well plate for the fluorescence measurement of ASP^+ or used for sample preparation for LC–MS/MS analysis. […] Fluorescence quantification was performed in technical duplicates.
(§3) Transporter-mediated net uptake was calculated as the difference between uptake in transporter-overexpressing cells and that in the empty-vector-transfected control. […] Vmax is the maximum transport velocity, while Km is defined as the substance concentration that is required to reach half of vmax. The ratio of vmax over Km is termed intrinsic clearance Clint. For inhibition experiments, the transport activity was calculated by using the following equation [drawing 1]
(§4) SubstrateEV refers to the passive uptake of model substrates into the control cells and substratenoninhibited is the uptake in transporter-overexpressing cells without the presence of any inhibitor. The percent inhibition values are then calculated as described in the following [drawing 2]
(§5) For concentration inhibition experiments, the transporter activity was plotted against the log10 of inhibitor concentrations, and the data were fitted by the following equation to determine IC50 values [drawing 3]
(§6) Y refers to the transporter activity, whereas Ymax is the maximum and Ymin is the minimal transporter activity. X is the log10 of inhibitor concentrations, IC50 is the half-maximal inhibitory concentration, and hill slope is the slope factor.

[2] = target: T2, OCT3 (Homo sapiens, UniProt O75751); assay: Inhibition of model substrate uptake in OCT3-overexpressing HEK293 cells; format: cell-based; conditions: for IC50: read-out: IC50; for x-fold Stereoselectivity: ratio of the IC50 values of the two enantiomers of the drug
T2 construct: expressed in transfected cells; host or cells: HEK293
T2 sequence (O75751 1-556): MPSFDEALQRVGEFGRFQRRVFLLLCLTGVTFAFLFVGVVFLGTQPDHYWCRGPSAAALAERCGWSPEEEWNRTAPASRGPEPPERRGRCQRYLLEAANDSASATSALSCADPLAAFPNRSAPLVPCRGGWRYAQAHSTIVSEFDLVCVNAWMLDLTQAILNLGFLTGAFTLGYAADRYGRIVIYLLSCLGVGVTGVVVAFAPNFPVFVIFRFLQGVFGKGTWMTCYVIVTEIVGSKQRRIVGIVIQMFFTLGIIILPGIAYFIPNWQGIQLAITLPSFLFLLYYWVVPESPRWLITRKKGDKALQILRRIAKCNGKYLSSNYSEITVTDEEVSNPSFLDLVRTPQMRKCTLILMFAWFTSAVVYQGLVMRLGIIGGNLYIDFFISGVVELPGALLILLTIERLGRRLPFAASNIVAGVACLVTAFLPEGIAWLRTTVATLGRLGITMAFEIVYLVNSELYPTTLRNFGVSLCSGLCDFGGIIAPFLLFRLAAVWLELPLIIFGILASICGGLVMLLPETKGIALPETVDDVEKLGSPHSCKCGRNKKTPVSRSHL
Procedure: as §1, §2, §3, §4, §5, §6

[3] = target: T3, OCT1 (Homo sapiens, UniProt O15245); assay: Inhibition of model substrate uptake in OCT1-overexpressing HEK293 cells; format: cell-based; design: expressed in transfected cells; host or cells: HEK293; conditions: for selectivity ratio at 5 min: OCT1-overexpressing HEK293 cells, pH 7.4, OCT1, ratio of the IC50 values of the two enantiomers of the drug, read-out: x-fold Stereoselectivity; for ASP+ inhibition [%]: OCT1, 20 μM inhibitor, 2 μM ASP+, 5 min, mean of three experiments
T3 sequence (O15245 1-554): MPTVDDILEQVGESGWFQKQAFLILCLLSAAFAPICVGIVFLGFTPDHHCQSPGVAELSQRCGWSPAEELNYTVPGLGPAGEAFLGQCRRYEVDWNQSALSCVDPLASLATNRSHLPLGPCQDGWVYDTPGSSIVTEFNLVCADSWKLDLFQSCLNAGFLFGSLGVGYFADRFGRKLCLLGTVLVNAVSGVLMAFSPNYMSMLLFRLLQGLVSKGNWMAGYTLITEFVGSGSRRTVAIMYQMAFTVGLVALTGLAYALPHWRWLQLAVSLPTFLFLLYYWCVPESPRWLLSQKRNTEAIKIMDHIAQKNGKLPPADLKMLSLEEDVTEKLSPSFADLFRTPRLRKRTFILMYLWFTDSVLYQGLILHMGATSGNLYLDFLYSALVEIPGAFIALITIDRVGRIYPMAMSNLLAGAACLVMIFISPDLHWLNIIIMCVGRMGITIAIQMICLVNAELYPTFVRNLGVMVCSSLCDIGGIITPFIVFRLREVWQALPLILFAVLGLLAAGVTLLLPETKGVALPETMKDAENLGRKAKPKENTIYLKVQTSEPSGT
Procedure: Koepsell and Gorbulev (University of Würzburg, Germany).
Fluorescence quantification was performed in technical duplicates.

[4] = HEK293, 5 min, read-out: (S)-Zolmitriptan inhibition [%], OCT3, 20 μM inhibitor, 2 μM (S)-zolmitriptan, 5 min
[5] = OCT3, 20 μM inhibitor, 2 μM (S,S)-ethambutol, 5 min
[6] = OCT3, 20 μM inhibitor, 2 μM ASP+, 5 min
[7] = HEK293, 5 min, read-out: (S,S)-Ethambutol inhibition [%], OCT3, 20 μM inhibitor, 2 μM (S,S)-ethambutol, 5 min
[8] = HEK293, OCT3, 20 μM inhibitor, 2 μM ASP+, 5 min, read-out: ASP+ inhibition [%]
[9] = HEK293, 5 min, read-out: (S)-Zolmitriptan inhibition [%]
[10] = HEK293, 5 min, read-out: (S,S)-Ethambutol inhibition [%]
[11] = OCT2, ratio of the IC50 values of the two enantiomers of the drug
[12] = OCT3, Table S5, 2 μM ASP+ or ethambutol as model substrate, 5 min
[13] = OCT3, model substrate 2 μM (S)-zolmitriptan, 5 min
[14] = OCT3, model substrate 2 μM (S,S)-ethambutol, 5 min
[15] = OCT3, model substrate 2 μM N-ethyllidocaine, 5 min
[16] = OCT3, 20 μM inhibitor, 2 μM (S)-zolmitriptan, 5 min

Structure (SMILES): CNCC[C@@H](Oc1ccccc1C)c1ccccc1 [(R)-Tomoxetine]
- IC50 [1]: 6300 nM
- inhibition at 20 µM [2, 4]: 33.2%
- (S,S)-Ethambutol inhibition [%] [2, 5]: 39.0%
- ASP+ inhibition [%] [2, 6]: 1.1%

Structure (SMILES): CCCN[C@H]1CCc2nc(N)sc2C1 [Pramipexole]
- selectivity ratio at 5 min ([1]; human, pH 7.4): 4
- selectivity ratio at 5 min ([3]; human): 1.6

Structure (SMILES): CC(C)NC[C@@H](O)COc1ccc(CC(N)=O)cc1 [(R)-Atenolol]
- inhibition at 20 µM [2, 4]: 5.5%
- inhibition at 20 µM [2, 7]: 0.9%
- inhibition at 20 µM [2, 8]: 3.9%

Structure (SMILES): CCCNC[C@@H](O)COc1ccccc1C(=O)CCc1ccccc1 [(R)-Propafenone]
- inhibition at 20 µM [2, 4]: 53.6%
- inhibition at 20 µM [2, 8]: 17.3%

Structure (SMILES): CCN[C@H](C)Cc1cccc(C(F)(F)F)c1 [(R)-Fenfluramine]
- inhibition at 20 µM [2, 9]: 55.9%
- inhibition at 20 µM [2, 10]: 40.7%
- inhibition at 20 µM [2, 8]: 7.6%
- ASP+ inhibition [%] [3]: 38.4%

Structure (SMILES): CC(C)NC[C@H](O)COc1ccc(CC(N)=O)cc1 [(S)-Atenolol]
- inhibition at 20 µM [2, 4]: -3.8%
- inhibition at 20 µM [2, 7]: 2.9%
- inhibition at 20 µM [2, 8]: 0.9%

Structure (SMILES): OCC(O)CN1CCN(c2ccccc2)CC1 (stereo not shown) [Dropropizine]
- x-fold Stereoselectivity [1, 11]: 1.4 fold

Structure (SMILES): Cc1ccc(O)c([C@@H](CCN(C(C)C)C(C)C)c2ccccc2)c1 [(S)-Tolterodine]
- IC50 [1]: 130 nM
- (S)-Zolmitriptan inhibition [%] [2]: 82.9
- (S,S)-Ethambutol inhibition [%] [2]: 89.8
- IC50 [2, 12]: 25300 nM
- ASP+ inhibition [%] [2, 6]: 53.5% and 54%
- IC50 [2, 13]: 7000 nM
- IC50 [2, 14]: 6370 nM
- IC50 [2, 15]: 3100 nM
- IC50 ([2]; OCT3, model substrate 2 μM famotidine, 5 min): 2310 nM

Structure (SMILES): COc1ccc(CCN(C)CCC[C@](C#N)(c2ccc(OC)c(OC)c2)C(C)C)cc1OC [(R)-Verapamil]
- inhibition at 20 µM [2, 9]: 42.1%
- inhibition at 20 µM [2, 10]: 48.9%
- inhibition at 20 µM [2, 8]: 8.2%

Structure (SMILES): CNCC[C@H](Oc1ccccc1C)c1ccccc1 [(S)-Tomoxetine]
- IC50 [1]: 17100 nM
- (S)-Zolmitriptan inhibition [%] [2, 16]: 21.1%
- (S,S)-Ethambutol inhibition [%] [2, 5]: -5.7%
- ASP+ inhibition [%] [2, 6]: -8.3%

Structure (SMILES): CN(C)CCc1c[nH]c2ccc(C[C@H]3COC(=O)N3)cc12 [Zolmitriptan]
- x-fold Stereoselectivity ([2]; OCT3): 25 fold
- stereoselective inhibition of OCT3 (in words) ([2]; ethambutol and zolmitriptan as substrates, 20 μM inhibitor): stereoselective inhibition

Structure (SMILES): O=C1c2cccc3c2[C@H](CCC3)CN1[C@@H]1CN2CCC1CC2 [Palonosetron]
- stereoselectivity in the inhibition of OCT2 (in words) ([1]; ASP+ uptake, reduced inhibitor concentrations (Figure S4)): relevant stereoselectivity
- selectivity ratio at 5 min ([1]; human, pH 7.4): 3.2
- x-fold Stereoselectivity ([2]; OCT3): 2.5 fold

Structure (SMILES): C1CCN2C[C@@H]3C[C@@H](CN4CCCC[C@@H]34)[C@H]2C1 [(-)-Sparteine]
- (S)-Zolmitriptan inhibition [%] [2]: 11.0
- (S,S)-Ethambutol inhibition [%] [2]: 20.7
- ASP+ inhibition [%] [2, 6]: 0.4%

Structure (SMILES): CC(C)(C)NC[C@H](O)COc1nsnc1N1CCOCC1 [Timolol]
- selectivity ratio at 5 min ([1]; human, pH 7.4): 2

Structure (SMILES): COc1ccc(CCN(C)CCC[C@@](C#N)(c2ccc(OC)c(OC)c2)C(C)C)cc1OC [(S)-Verapamil]
- inhibition at 20 µM [2, 9]: 57.6%
- inhibition at 20 µM [2, 10]: 70.7%
- inhibition at 20 µM [2, 8]: 20.8%

Structure (SMILES): CCCNC[C@H](O)COc1ccccc1C(=O)CCc1ccccc1 [(S)-Propafenone]
- (S)-Zolmitriptan inhibition [%] [2, 16]: 62.0%
- (S,S)-Ethambutol inhibition [%] [2, 5]: 76.4%
- ASP+ inhibition [%] [2, 6]: 23.8%

Structure (SMILES): CCN1CCCC1CNC(=O)c1cc(S(=O)(=O)CC)c(N)cc1OC (stereo not shown) [Amisulpride]
- difference between enantiomers in the inhibition of OCT2 (in words) ([1]; ASP+ screening, 20 μM inhibitor): noticeable differences
- x-fold Stereoselectivity [1, 11]: 3.2 fold

Structure (SMILES): Cc1ccc(O)c([C@H](CCN(C(C)C)C(C)C)c2ccccc2)c1 [(R)-Tolterodine]
- IC50 [1]: 200 nM
- inhibition at 20 µM [2, 9]: 97.6%
- IC50 [2, 12]: 2300 nM
- ASP+ inhibition [%] [2, 6]: 94%
- IC50 [2, 13]: 570 nM
- IC50 [2, 14]: 390 nM
- IC50 [2, 15]: 230 nM
- IC50 [2]: 170 nM

Structure (SMILES): CCN[C@@H](C)Cc1cccc(C(F)(F)F)c1 [(S)-Fenfluramine]
- (S)-Zolmitriptan inhibition [%] [2]: 51.9%
- (S,S)-Ethambutol inhibition [%] [2]: 40.7%
- ASP+ inhibition [%] [2, 6]: 12.7%
- ASP+ inhibition [%] [3]: 41.9%
- Sumatriptan inhibition [%] ([3]; human, pH 7.4): 87.1%

Structure (SMILES): C#CCN(C)C(C)Cc1ccccc1 (stereo not shown) [Deprenyl]
- x-fold Stereoselectivity ([1]; human, pH 7.4): 1.4 fold

Structure (SMILES): CN(C)CCOC(C)(c1ccccc1)c1ccccn1 (stereo not shown) [Doxylamine]
- selectivity ratio at 5 min ([3]; human): 1.4
